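All cell lines were grown in 96-well plates and treated with compound for 48 hours. The concentration for 50% growth inhibition is given as GI50. At the TGI there is no net growth.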
Experiments:
Assay in all cases: growth of human tumour cells (NCI), 48 h
SR leukemia = tested on: SR leukemia
IGROV1 ovarian = tested on: IGROV1 ovarian
OVCAR-3 ovarian = tested on: OVCAR-3 ovarian
HCT-15 colon = tested on: HCT-15 colon
OVCAR-4 ovarian = tested on: OVCAR-4 ovarian
OVCAR-8 ovarian = tested on: OVCAR-8 ovarian
MALME-3M melanoma = tested on: MALME-3M melanoma
LOX IMVI melanoma = tested on: LOX IMVI melanoma
NCI-H23 lung = tested on: NCI-H23 lung
COLO 205 colon = tested on: COLO 205 colon
U251 CNS = tested on: U251 CNS
BT-549 breast = tested on: BT-549 breast
DU-145 prostate = tested on: DU-145 prostate
RXF 393 renal = tested on: RXF 393 renal
CAKI-1 renal = tested on: CAKI-1 renal
EKVX NSCLC = tested on: EKVX NSCLC
M14 melanoma = tested on: M14 melanoma
HOP-62 NSCLC = tested on: HOP-62 NSCLC
SNB-75 CNS = tested on: SNB-75 CNS
SN12C renal = tested on: SN12C renal
SK-MEL-28 melanoma = tested on: SK-MEL-28 melanoma
UACC-257 melanoma = tested on: UACC-257 melanoma
NCI-H460 lung = tested on: NCI-H460 lung
MDA-MB-435 = tested on: MDA-MB-435
SF-268 CNS = tested on: SF-268 CNS
NCI-H226 lung = tested on: NCI-H226 lung
HOP-92 NSCLC = tested on: HOP-92 NSCLC
KM12 colon = tested on: KM12 colon
SNB-19 CNS = tested on: SNB-19 CNS
A549 NSCLC = tested on: A549 NSCLC
A498 renal = tested on: A498 renal
MOLT-4 leukemia = tested on: MOLT-4 leukemia
SK-MEL-2 melanoma = tested on: SK-MEL-2 melanoma
TK-10 renal = tested on: TK-10 renal
ACHN renal = tested on: ACHN renal
HL-60(TB) leukemia = tested on: HL-60(TB) leukemia
SF-295 CNS = tested on: SF-295 CNS
UACC-62 melanoma = tested on: UACC-62 melanoma
OVCAR-5 ovarian = tested on: OVCAR-5 ovarian
SW-620 colon = tested on: SW-620 colon
RPMI-8226 leukemia = tested on: RPMI-8226 leukemia
HS 578T breast = tested on: HS 578T breast
T-47D breast = tested on: T-47D breast
SK-MEL-5 melanoma = tested on: SK-MEL-5 melanoma
HCC-2998 colon = tested on: HCC-2998 colon
UO-31 renal = tested on: UO-31 renal
SF-539 CNS = tested on: SF-539 CNS
K-562 leukemia = tested on: K-562 leukemia
SK-OV-3 ovarian = tested on: SK-OV-3 ovarian
NCI-H522 lung = tested on: NCI-H522 lung
CCRF-CEM leukemia = tested on: CCRF-CEM leukemia
MDA-MB-231 breast = tested on: MDA-MB-231 breast
MDA-MB-468 breast = tested on: MDA-MB-468 breast
PC-3 prostate = tested on: PC-3 prostate
NCI/ADR-RES ovarian = tested on: NCI/ADR-RES ovarian
786-0 renal = tested on: 786-0 renal
HT29 colon = tested on: HT29 colon
MCF7 breast = tested on: MCF7 breast
HCT-116 colon = tested on: HCT-116 colon

O=C(Cc1ccc2c(c1)CN(C1CCC(=O)NC1=O)C2=O)NCc1cccc2ccccc12 (configuration not stated)
GI50 (SR leukemia): 0.0929 µM | TGI (SR leukemia): > 100 µM | GI50 (IGROV1 ovarian): < 0.01 µM | TGI (IGROV1 ovarian): < 0.0157 µM | GI50 (OVCAR-3 ovarian): 0.0259 µM | TGI (OVCAR-3 ovarian): 1.17 µM | GI50 (HCT-15 colon): < 0.01 µM | TGI (HCT-15 colon): 0.114 µM | GI50 (OVCAR-4 ovarian): < 0.01 µM | TGI (OVCAR-4 ovarian): 0.046 µM | GI50 (OVCAR-8 ovarian): < 0.01 µM | GI50 (MALME-3M melanoma): < 0.01 µM | TGI (MALME-3M melanoma): < 0.01 µM | GI50 (LOX IMVI melanoma): 0.0415 µM | TGI (LOX IMVI melanoma): 2.51 µM | GI50 (NCI-H23 lung): 0.0886 µM | TGI (NCI-H23 lung): 3.99 µM | GI50 (COLO 205 colon): < 0.01 µM | TGI (COLO 205 colon): < 0.01 µM | GI50 (U251 CNS): 0.0394 µM | TGI (U251 CNS): > 100 µM | GI50 (BT-549 breast): < 0.01 µM | TGI (BT-549 breast): < 0.01 µM | GI50 (DU-145 prostate): 0.0388 µM | GI50 (RXF 393 renal): < 0.01 µM | TGI (RXF 393 renal): 0.0257 µM | GI50 (CAKI-1 renal): < 0.01 µM | TGI (CAKI-1 renal): 6.38 µM | GI50 (EKVX NSCLC): < 0.0224 µM | GI50 (M14 melanoma): < 0.01 µM | TGI (M14 melanoma): 0.0334 µM | GI50 (HOP-62 NSCLC): < 0.01 µM | TGI (HOP-62 NSCLC): < 0.0321 µM | GI50 (SNB-75 CNS): < 0.01 µM | TGI (SNB-75 CNS): < 0.012 µM | GI50 (SN12C renal): < 0.01 µM | TGI (SN12C renal): 0.0882 µM | GI50 (SK-MEL-28 melanoma): < 0.0114 µM | TGI (SK-MEL-28 melanoma): 0.189 µM | GI50 (UACC-257 melanoma): 0.35 µM | TGI (UACC-257 melanoma): > 100 µM | GI50 (NCI-H460 lung): 5.17 µM | TGI (NCI-H460 lung): > 100 µM | GI50 (MDA-MB-435): < 0.01 µM | TGI (MDA-MB-435): 0.163 µM | GI50 (SF-268 CNS): < 0.01 µM | TGI (SF-268 CNS): 0.26 µM | GI50 (NCI-H226 lung): < 0.01 µM | TGI (NCI-H226 lung): 0.041 µM | GI50 (HOP-92 NSCLC): < 0.01 µM | TGI (HOP-92 NSCLC): < 0.01 µM | GI50 (KM12 colon): < 0.01 µM | TGI (KM12 colon): 0.461 µM | GI50 (SNB-19 CNS): < 0.01 µM | TGI (SNB-19 CNS): 0.0742 µM | GI50 (A549 NSCLC): 0.0146 µM | TGI (A549 NSCLC): > 100 µM | GI50 (A498 renal): < 0.01 µM | TGI (A498 renal): 0.0728 µM | GI50 (MOLT-4 leukemia): < 0.01 µM | TGI (MOLT-4 leukemia): > 100 µM | GI50 (SK-MEL-2 melanoma): < 0.01 µM | TGI (SK-MEL-2 melanoma): 0.0192 µM | GI50 (TK-10 renal): < 0.0169 µM | TGI (TK-10 renal): 0.751 µM | GI50 (ACHN renal): 0.0526 µM | TGI (ACHN renal): 0.904 µM | GI50 (HL-60(TB) leukemia): < 0.01 µM | GI50 (SF-295 CNS): < 0.01 µM | TGI (SF-295 CNS): 0.129 µM | GI50 (UACC-62 melanoma): 0.0403 µM | TGI (UACC-62 melanoma): 1.42 µM | GI50 (OVCAR-5 ovarian): < 0.01 µM | TGI (OVCAR-5 ovarian): 0.0409 µM | GI50 (SW-620 colon): < 0.01 µM | GI50 (RPMI-8226 leukemia): < 0.0113 µM | TGI (RPMI-8226 leukemia): > 100 µM | GI50 (HS 578T breast): < 0.01 µM | TGI (HS 578T breast): < 0.0179 µM | GI50 (T-47D breast): < 0.01 µM | TGI (T-47D breast): < 0.01 µM | GI50 (SK-MEL-5 melanoma): < 0.01 µM | TGI (SK-MEL-5 melanoma): < 0.0119 µM | GI50 (HCC-2998 colon): < 0.01 µM | TGI (HCC-2998 colon): < 0.01 µM | GI50 (UO-31 renal): < 0.0115 µM | TGI (UO-31 renal): 0.0877 µM | GI50 (SF-539 CNS): < 0.0103 µM | TGI (SF-539 CNS): 0.114 µM | GI50 (K-562 leukemia): < 0.01 µM | TGI (K-562 leukemia): > 100 µM | GI50 (SK-OV-3 ovarian): < 0.01 µM | TGI (SK-OV-3 ovarian): 0.147 µM | GI50 (NCI-H522 lung): 0.0291 µM | TGI (NCI-H522 lung): 0.351 µM | GI50 (CCRF-CEM leukemia): < 0.01 µM | TGI (CCRF-CEM leukemia): 0.105 µM | GI50 (MDA-MB-231 breast): < 0.01 µM | TGI (MDA-MB-231 breast): < 0.01 µM | GI50 (MDA-MB-468 breast): < 0.01 µM | TGI (MDA-MB-468 breast): < 0.01 µM | GI50 (PC-3 prostate): < 0.01 µM | TGI (PC-3 prostate): 0.177 µM | GI50 (NCI/ADR-RES ovarian): 0.3 µM | TGI (NCI/ADR-RES ovarian): 3.08 µM | GI50 (786-0 renal): < 0.01 µM | GI50 (HT29 colon): 0.0102 µM | TGI (HT29 colon): 0.108 µM | GI50 (MCF7 breast): < 0.01 µM | TGI (MCF7 breast): > 33.3 µM | GI50 (HCT-116 colon): 0.0546 µM | TGI (HCT-116 colon): > 100 µM
